In patent US8912355B2, “Linoleic phospholipids and uses thereof for inhibiting inflammatory and neurodegenerative processes” (University of Ottawa Heart Institute, priority 2009, dated 2014):
“Also recorded” adds a separate entry of the source.

Tests used:
NF-κB [1] = assay: LPS- or TNFα-induced NF-κB phosphorylation in HepG2 cells, Western blot; format: cell-based, human; conditions: for TNFα-induced activation of NF-κB (p-NF-κB): DLPC 12 μmol/L, DOPC 12 μmol/L or LA 25 μmol/L for 30 min, TNFα 10 ng/ml, 5 min
Method: HepG2 cells were pre-incubated with DLPC (12 μM) for 30 min. and then incubated with LPS (5 μg/ml) for 24 h in DMEM serum-depleted media. Phospho-IκBα and phospho-NF-kB (p-IκBα and p-NF-κB) expression were analyzed by Western blot.
(§1) Western Blot Analysis—After incubation with drugs for the indicated times and doses, cells were washed twice with ice-cold PBS-T on ice. Cells were lysed by adding buffer [NaF 1 mmol/L, NaCl 5 mmol/L, EDTA 1 mmol/L, NP40 1 mmol/L (Roche Diagnostics, Indianapolis, Ind.), HEPES 10 mmol/L, pepstatin A 1 mg/mL, leupeptin 1 mg/mL, aprotinin 1 mg/mL, Na3VO4 1 mmol/L, and PMSF 1 mmol/L] and total protein was extracted. An equal amount of cell proteins were separated by 12% SDS-PAGE and were analyzed by Western blot using specific antibodies to TNFα, Aβ, APP, phospho-ERK1/2, ERK1/2, phospho-tau, tau, phospho-IκBα, IκBα, phospho-NF-κB and NF-κB. […] Band intensity was analyzed with the Alpha-Innotech Fluor Chem™ HD Imager.

ERK1/2 = assay: TNFα- or H2O2-induced ERK1/2 (MAPK) phosphorylation in SH-SY5Y cells, Western blot; format: cell-based, human; conditions: for TNFα-induced ERK1/2 phosphorylation: TNFα 10 ng/ml
Method: (§2) Cells and Cell Culture—Human neuroblastoma (SH-SY5Y) cells were obtained from American Type Cell Culture (ATCC Number CRL-2266; Manassas, Va., USA). SH-SY5Y was cultured and maintained in F12:DMEM (1:1, v/v) media condition with 10% FBS and 1% penicillin/streptomycin in a 37° C./5% CO2 exchange condition. Passages 3-10 were used in the present study and confluent cells were subjected to stimulation with drugs for indicated times under serum-starved conditions.
(§3) Preparation of Phospholipid Vesicles—Phospholipid Vesicles in Phosphate-Buffered saline (PBS; 1 mg/mL) were prepared by sonication as previously described (8). Briefly, pure dilinoeoylphosphatidylcholine (DLPC) in chloroform was dried down under N2 and 1 mL of PBS was added by vortexing. The mix was then sonicated (Branson sonicator set at 100% duty cycle and 10% power) for 1 min. The sonicated preparation was incubated for 30 min at 37° C. in a water bath, and samples were resonicated for 5 min at 95% duty cycle and 10% power and filtered before use.
(§4) Western Blot Analysis—After incubation with drugs for the indicated times and doses, cells were washed twice with ice-cold PBS-T on ice. Cells were lysed by adding buffer [NaF 1 mmol/L, NaCl 5 mmol/L, EDTA 1 mmol/L, NP40 1 mmol/L (Roche Diagnostics, Indianapolis, Ind.), HEPES 10 mmol/L, pepstatin A 1 mg/mL, leupeptin 1 mg/mL, aprotinin 1 mg/mL, Na3VO4 1 mmol/L, and PMSF 1 mmol/L] and total protein was extracted. An equal amount of cell proteins were separated by 12% SDS-PAGE and were analyzed by Western blot using specific antibodies to TNFα, Aβ, APP, phospho-ERK1/2, ERK1/2, phospho-tau, tau, phospho-IκBα, IκBα, phospho-NF-κB and NF-κB. Blots for the similar experiments were also subjected to β-actin for a loading control. Band intensity was analyzed with the Alpha-Innotech Fluor Chem™ HD Imager.
Experiments were undertaken to determine if DLPC can block a tumor necrosis factor (TNFα) activation of MAPK in neuroblastoma cells. […]

NF-κB [2] = assay: TNFα-induced NF-κB phosphorylation in SH-SY5Y cells, Western blot; format: cell-based, human
Method: as §2, §3, §4
The effect of a selective MAPK inhibitor, U0126, on a TNFα induction of MAPK and nuclear factor kappa B (NF-κB) was evaluated. […] TNFα induced a 3-fold increase in NF-κB phosphorylation in SH-SY5Y cells at 5 min after treatment (FIG. 4). DLPC blocked the increase in neuronal NF-κB phosphorylation by ˜50% over 5-30 min post treatment with TNFα.

IκBα [3] = assay: TNFα-induced IκBα phosphorylation and degradation in SH-SY5Y cells, Western blot; format: cell-based, human; conditions: TNFα 10 ng/ml
Method: as §1

tau = assay: Agonist-induced tau phosphorylation (AT8) in SH-SY5Y cells, Western blot; format: cell-based, human
Method: as §2, §3, §4
The effect of pro-inflammatory and oxidative stress agonists on tau phosphorylation were also evaluated in SH-SY5Y cells.

[4] = test system: amyloid precursor protein (APP); assay: Basal amyloid precursor protein expression in SH-SY5Y cells, Western blot; format: cell-based, human; conditions: unstimulated SH-SY5Y; DLPC 12 μM, 24 h
Method: SH-SY5Y cells were incubated with DLPC (12 μM) for 24 h and APP expression was analyzed in total cell lysates by Western blotting. Histograms representing densitometry analysis of APP and the values are presented relative to total β-actin control and are expressed as mean±SEM of at least 3 independent experiments. *P<0.05 vs control.
as §2
Preparation of Phospholipid Vesicles—Phospholipid Vesicles in Phosphate-Buffered saline (PBS; 1 mg/mL) were prepared by sonication as previously described (8). […]
Western Blot Analysis—After incubation with drugs for the indicated times and doses, cells were washed twice with ice-cold PBS-T on ice. […] An equal amount of cell proteins were separated by 12% SDS-PAGE and were analyzed by Western blot using specific antibodies to TNFα, Aβ, APP, phospho-ERK1/2, ERK1/2, phospho-tau, tau, phospho-IκBα, IκBα, phospho-NF-κB and NF-κB. […] Band intensity was analyzed with the Alpha-Innotech Fluor Chem™ HD Imager.

amyloid-β = assay: Amyloid-β secretion into conditioned media of SH-SY5Y cells, Western blot; format: cell-based, human
Method: SH-SY5Y cells were pretreated with DLPC (12 μM) for 30 minutes and then incubated with LPS (100 ng/mL) for 24 h. Conditioned media from each experiment were collected and subjected to Western blot analysis for amyloid-β. Loading volumes were adjusted relative to total cell protein. Histograms representing densitometry analysis of amyloid-(3 and are expressed as mean±SEM of at least 3 independent experiments. *P<0.001 vs control and **P<0.001 vs LPS alone.
as §2, with “conditions. […]” for “conditions.”
Aβ quantification—Aβ immuno-quantification was performed in conditioned media after incubation with the inhibitors/agonists and/or phospholipids for the indicated times and doses. […] Band intensities were analyzed using the Spot-densitometer application of the AlphaEaseFC software and values were corrected with total cell proteins in cell lysates. […] Total protein concentration was determined using the BCA protein assay (Pierce, Rockford, Ill.) in cell lysate. […]

IκBα [5] = assay: LPS-induced IκBα phosphorylation in HepG2 cells, Western blot; format: cell-based, human; conditions: DLPC 12 μM 30 min, LPS 5 μg/ml, 24 h
Method: HepG2 cells were pre-incubated with DLPC (12 μM) for 30 min. and then incubated with LPS (5 μg/ml) for 24 h in DMEM serum-depleted media. Phospho-IκBα and phospho-NF-kB (p-IκBα and p-NF-κB) expression were analyzed by Western blot. Histograms represent densitometry analysis of p-IκBα (A) and p-NF-κB (B) and values are shown relative to β-actin and are expressed as mean±SEM of 3 replicate experiments. *P<0.05 vs LPS alone.
as §4

TNFα = assay: LPS-induced TNFα expression in HepG2 cells, Western blot; format: cell-based, human; conditions: DLPC 12 μmol/L 30 min, LPS 5 μg/ml, 24 h
Method: (§5) HepG2 cells were pre-incubated with DLPC (12 μmol/L) for 30 min and then incubated with LPS (5 μg/ml) for 24 h in DMEM serum-depleted media. Cell lysates were analyzed for TNFα expression by Western blot. Values are presented relative to β-actin and are expressed as mean±SEM for 3 replicate experiments. *P<0.05 vs LPS alone.
as §4

TLR-4 = assay: LPS-induced TLR-4 expression in HepG2 cells, Western blot; format: cell-based, human; conditions: DLPC 12 μmol/L 30 min, LPS 5 μg/ml, 24 h
Method: as §5, with “min.” for “min”, “TLR-4” for “TNFα”
as §4

NF-κB [6] = assay: LPS and TNFα induction of NF-κB in CaCO-2 cells (unpublished observations); format: cell-based; conditions: CaCO-2 cell line; unpublished observations of the inventors
Kupffer cells = Kupffer cells of ethanol-fed rats; cited from earlier work
[7] = inhibitor 10 μM pretreatment 30 min
[8] = 10 μM pretreatment 30 min, TNFα 10 ng/ml
[9] = DLPC 12 μM 30 min, TNFα 10 ng/ml

## CCCCCCCC/C=C\CCCCCCCC(=O)OC[C@H](COP(=O)([O-])OCC[N+](C)(C)C)OC(=O)CCCCCCC/C=C\CCCCCCCC [DOPC, dioleoyl phosphatidylcholine, reference compound]
NF-κB [1]
  TNFα-induced activation of NF-κB (p-NF-κB): no impact

## CS/C(N)=C(C#N)/C(C#N)=C(\N)SC [U0124, reference compound]
ERK1/2; [7]
  TNFα-induced ERK1/2 phosphorylation: no effect
NF-κB [2]; [8]
  NF-κB phosphorylation status: no effect

## N#CC(=C(/N)Sc1ccccc1N)/C(C#N)=C(\N)Sc1ccccc1N [U0126, reference compound]
ERK1/2; [7]
  TNFα-induced ERK1/2 phosphorylation: blocked the phosphorylation of ERK1/2
IκBα [3]; 10 μM pretreatment 30 min
  reduction of TNFα-induced IκBα phosphorylation: ~50%
NF-κB [2]; [8]
  reduction of TNFα-induced NF-κB phosphorylation: ~50%
tau; U0126 10 μM pretreatment 30 min, TNFα 10 ng/ml, 5 min
  TNFα-induced phosphorylation of tau (AT8): completely blocked

## CCCCC/C=C\C/C=C\CCCCCCCC(=O)OC[C@H](COP(=O)([O-])OCC[N+](C)(C)C)OC(=O)CCCCCCC/C=C\C/C=C\CCCCC [DLPC, dilinoleoylphosphatidylcholine]
ERK1/2; DLPC
  hydrogen peroxide induction of MAPK: block a hydrogen peroxide induction of MAPK
ERK1/2; DLPC 12 μM pre-incubated 30 min
  TNFα-induced ERK1/2 phosphorylation: block ERK1/2 phosphorylation for 30 min
IκBα [3]; DLPC 12 μM 30 min
  IκBα degradation: prevented IkBα degradation
  TNFα-induced IκBα phosphorylation: blocked TNFα-induced IkBα phosphorylation
NF-κB [2]; [9]
  TNFα-induced NF-κB phosphorylation: inhibited TNFα-induced NF-κB phosphorylation
NF-κB [2]; DLPC 12 μM, 5-30 min post treatment with TNFα
  block of the TNFα-induced increase in neuronal NF-κB phosphorylation: ~50%
tau; DLPC 12 μM 30 min, LPS 100 ng/ml
  LPS-induced tau phosphorylation: blocked the effect both agonists and gave rise to tau phosphoylation levels lower than control values by 30 min
tau; [9]
  TNFα-induced tau phosphorylation: blocked the effect both agonists and gave rise to tau phosphoylation levels lower than control values by 30 min
[4]
  decrease of basal expression of amyloid precursor protein (APP): ~25%
amyloid-β; DLPC 12 μM 30 min, LPS 100 ng/mL, 24 h
  LPS-induced increase in Aβ secretion: completely blocked
amyloid-β; DLPC 12 μM, 24 h conditioned media
  decrease of basal secretion of Aβ: 65%
IκBα [5]
  LPS-induced IκBα phosphorylation: inhibits LPS-induced IkBα and NF-κB phosphorylation after 24 h
NF-κB [1]; DLPC 12 μM 30 min, LPS 5 μg/ml, 24 h
  LPS-induced NF-κB phosphorylation / activation: inhibits LPS-induced IkBα and NF-κB phosphorylation after 24 h; also recorded: inhibits activation of NF-κB in HepG2 cells for up to 24 h
NF-κB [1]
  TNFα-induced activation of NF-κB (p-NF-κB): block activation of NF-κB
TNFα
  LPS-induced increase in TNFα expression: inhibits an LPS-induced increase in TNFα expression
TLR-4
  LPS-induced increase in TLR-4 expression: blocks an LPS-induced increase in TLR-4 expression
NF-κB [6]
  LPS and TNFα induction of NF-κB: can block an LPS and TNFα induction of NF-κB
Kupffer cells
  NF-κB activation: decreases induction of TNFα secretion and NF-κB activation
  induction of TNFα secretion: decreases induction of TNFα secretion
